Row | SMILES | melting point [°C]
1 | FC(F)(F)C1(c2cc(Cl)cc(Cl)c2)CCN(c2ccc(-n3cnnn3)c(Br)c2)C1 (stereo not drawn) | 193 to 194
2 | COP(=O)(Cc1nc2ccccc2nc1CP(=O)(OC)OC)OC | 115 to 116
3 | COc1cc(CN2CCN(c3ccccc3F)CC2)ccc1OC(=O)N(C)C | 130 to 133
4 | CC(C)(O)CCCCCc1ccc(CCc2cc(O)cc(O)c2)cc1 | 128 to 130
5 | Cc1ccc(C2C(=O)CC(C)(C)CC2=O)c(C)c1 | 167 to 169
6 | COC(=O)C1=C(C)NC(C)=C(C(=O)OCCN2CCC(c3ccccc3)CC2)C1c1cccc([N+](=O)[O-])c1 (stereo not drawn) | 159 to 160
7 | CC1(C)CC(=O)C2=C(C1)NC1=C(C(=O)CC(C)(C)C1)C2c1ccc(Br)c([N+](=O)[O-])c1 | > 300
8 | COc1ccc(-c2c(/C=C\C(=O)O)cnn2C)cc1 | 205 to 206
9 | CCOC(=O)c1c(C)nn(-c2ccc(F)cc2)c1C | 59 to 60
10 | CC(C)Oc1cc(-n2c(=O)[nH]c(CF)c(F)c2=O)c(F)cc1Cl | 152 to 154
11 | N#Cc1nn(-c2c(Cl)cc(C(F)(F)F)cc2Cl)c(N)c1-c1ccc2c(c1)OCO2 | 222
12 | CC(C)(CCC(=O)O)N(Cl)Cl | 35 to 38
13 | CCOC(=O)n1nc(Oc2c(F)cc(C(F)(F)F)cc2Cl)cc1C | 127 to 129
14 | C#CCN1C(=O)COc2cc(F)c(NC(=O)C3CCCN3C(=O)OCc3ccccc3)cc21 (stereo not drawn) | 72 to 74
15 | Cc1ccc(Br)c(C)c1C(=O)O | 121
16 | OCC1CCC(N2CCC(=C3c4ccccc4Sc4ccc(C(F)(F)F)cc43)CC2)CC1 (stereo not drawn) | 193 to 197
17 | CN1CCC(c2c[nH]c3ccc(C(=O)c4ccc(N(C)C)cc4)cc23)CC1 | 103 to 104
18 | Cc1ccc2ccn3c(C(F)(F)F)nnc3c2c1 | 205 to 206
19 | COn1cc(C(=O)O)c(=O)c2c3sc(=O)n(C)c3ccc21 | > 300
20 | COC(=O)c1ncc(-c2ccccc2)nc1N | 228
21 | O=C(COc1cccc(CCNS(=O)(=O)c2ccc(Br)cc2)c1)Nc1nnn[nH]1 | 205 to 206
22 | O=C1NC(N2CCCCCC2)=N/C1=C\c1c[nH]c2ncc(-c3ccccc3)cc12 | 302
23 | Nc1c(-c2ccc(C(F)(F)F)cc2F)nnn1Cc1ccc(S(N)(=O)=O)cc1 | 180 to 181
24 | CCCCCCOc1ccc(C(=O)NC2CCC(C)(C)C2)cc1 (stereo not drawn) | 82 to 83
25 | CC(C)OC1=CC=CN2C1=NC(=O)C2(Cc1ccccc1)Cc1ccccc1 | 247 to 248

Row | SMILES | melting point [°C]
26 | O=C1c2ccccc2C(=O)N1CC(=O)N1c2ccccc2N(Cc2ccc3ccccc3c2)C(=O)C2CCCC21 (stereo not drawn) | 238 to 239
27 | CC(C)c1ccc(C(=O)Cc2cccs2)c(C(C)C)c1OS(N)(=O)=O | 133 to 136
28 | O=c1ccc(Cl)cn1[C@@H]1c2cc([N+](=O)[O-])ccc2OCC[C@H]1O (relative stereo) | 219 to 222
29 | CCOC(=O)Cc1ccc([N+](=O)[O-])c(OCC(F)(F)F)c1 | 76 to 77
30 | C=CCc1cc(Cc2cnc(N)nc2N)c2ccc(C)nc2c1OC | 219 to 222
31 | CC(=O)Nc1cc(NS(=O)(=O)CCl)c(Cl)cc1F | 210
32 | Clc1c2ccccc2nc2c1oc1ccccc12 | 158 to 159
33 | CC(C)CCC(=O)N[C@@H](Cc1ccccc1)C(=O)CSCc1ccco1 | 68 to 71
34 | CCOC(=O)CCCCOc1ccc(N2CCN(c3ccncc3)CC2)cc1 | 79 to 82
35 | CC(C)(C)OC(=O)N[C@@H](CC(N)=O)C(=O)N1CCN(Cc2ccccc2)CC1 | 98 to 100
36 | COc1cc2ncnc(NC3=CC(=O)C(Oc4ccccc4)=CC3=O)c2cc1OC | 228 to 234
37 | CC(C(=O)O)c1ccc(Oc2ccc(Cl)cc2)cc1 (stereo not drawn) | 105 to 107
38 | CCc1cc(Cc2cc(CC)c(N)c(C)c2Cl)c(Cl)c(C)c1N | 115 to 117
39 | CCOc1nc(C)c2cc(OC)c(OC)cc2c1C(=O)OC | 147 to 149
40 | N#Cc1cc(C(=O)NNC(=O)c2occ(-c3cccc(OCc4ccccc4)c3)c2-c2cccc(OCc3ccccc3)c2)ccc1O | 171 to 174
41 | CN(C)C(=O)C(C)(c1ccccc1)n1ccc(-c2ccccc2)n1 (stereo not drawn) | 129 to 132
42 | O=C1c2c(O)ccc(O)c2C(=O)c2c(F)ccc(F)c21 | 301 to 304
43 | COc1ccc(C(=O)Nc2ccccc2)c(CC2CCCCN2)c1 (stereo not drawn) | 108 to 109
44 | NC(=O)c1ccc(N2CCN(Cc3cn4cc(Cl)ccc4n3)CC2)cc1 | 240 to 241
45 | COC(=O)c1ccc(OC)c(NC(=N)c2ccc(F)c(Cl)c2)c1 | 120
46 | COC(=O)C(Cc1ccccc1)Oc1ccc2cc(-c3cnc(Cc4ccccc4)o3)ccc2c1 (stereo not drawn) | 88 to 90
47 | CCCOc1ccc(S(=O)(=O)NCCc2c[nH]cn2)cc1-c1nc2cc(N)c([N+](=O)[O-])cc2c(=O)[nH]1 | 169 to 172
48 | O=S(=O)(c1ccc(Cl)cc1)C(c1ccc(C2OCCO2)cn1)c1cc(F)ccc1F (stereo not drawn) | 167 to 168
49 | C(=C\c1nc(COc2ccc(Cn3cnnc3)cc2)co1)/c1ccccc1 | 209 to 210
50 | CC(C(=O)O)c1ccc(Cc2ccccc2CC(=O)O)cc1 (stereo not drawn) | 135 to 137

Row | SMILES | melting point [°C]
51 | CCN1CCN(c2cccc3c2C[C@H](NC(C)=O)CC3)CC1 | 142 to 143
52 | Cc1nc2ccccn2c1-c1csc(Nc2ccc(C(=O)NO)cc2)n1 | 188
53 | Cn1nc(C(F)(F)F)cc1N | 100 to 101
54 | Fc1ccc(N2CCN(CCCOc3ccccc3-c3nnco3)CC2)cc1 | 102 to 103
55 | CCOC(=O)c1[nH]c(=O)c(CC(C)C)[n+]([O-])c1N | 179 to 181
56 | COc1cc(CSC(=S)N(C)C)nc(N)n1 | 118 to 120
57 | CN(CCSCc1nc[nH]c1CSCCN(C)C(N)=S)C(N)=S | 154 to 155
58 | CCCCCCCCCCCCc1cnn(C(C(=O)Nc2c(OC)cc(OC)cc2OC)c2ccccc2)n1 (stereo not drawn) | 123 to 125
59 | CCn1c(Oc2cccc(NC=O)c2)nnc1[C@@H](C)NS(=O)(=O)c1ccc(Cl)c(Cl)c1 | 168 to 170
60 | C[C@@H](CO)Oc1cc(Oc2ccc(C(=O)N3CCC3)cc2)cc(C(=O)Nc2ccn(C)n2)c1 | 131
61 | Nc1cccc2c1COC2 | 85 to 89
62 | COc1cc(CC(=O)O)cc2c1NC(C(F)(F)F)CC2 (stereo not drawn) | 108 to 109
63 | Clc1ccc(CN2CCOCC2)c(N=C2CCCCN2)c1 | 121 to 122
64 | c1ccc2c(c1)CCCc1c-2n[nH]c1-c1ccncc1 | 217 to 219
65 | O=C1C(=O)N(C(c2ccccc2)(c2ccccc2)c2ccccc2)CCN1Cc1cc(=O)c(OCc2ccccc2)cn1Cc1ccccc1 | 165 to 168
66 | CC(C)(C)[C@@H]1CCc2nc3sc(C(=O)N[C@H](CN)c4cccc(NC(=O)c5ccno5)c4)cc3cc2C1 | 98 to 102
67 | COc1ccccc1NC(=O)Nc1nc(Nc2ccccc2-c2ccccc2)nc(N(CCC(=O)O)Cc2cccc3ccccc23)n1 | 218 to 221
68 | CC(C)(C)c1cc(C(=O)NCc2ccc(N)cc2)cc(C(C)(C)C)c1O | 188 to 189
69 | N#Cc1cccc(C2=Nc3ccc(C#Cc4ccc(F)cc4)cc3NC(=O)C2)c1 | 245 to 246
70 | N#Cc1ccc(-c2nc(COc3ccc(CCCn4ccnc4)cc3)co2)s1 | 73 to 74
71 | CC[C@@H](c1ccccc1)N(Cc1ccc(C(=O)OC)c(F)c1F)S(=O)(=O)c1ccc(Cl)cc1 | 87 to 89
72 | Cc1ccc(N2CCc3cc(Br)ccc32)c([N+](=O)[O-])c1 | 105 to 107
73 | N#CC1=C(C2CCN(C(=O)c3ccccc3)CC2)Nc2n[nH]cc2C1c1cccc2nonc12 (stereo not drawn) | 228
74 | CC(=O)N(C)CCc1ccc(CCC(=O)O)cc1 | 133 to 134
75 | CCOC(=O)C(=CNC1CC1)C(=O)c1c(F)cc(Cl)c(F)c1Cl | 106 to 107

Row | SMILES | melting point [°C]
76 | O=C1N(Cc2cnc(N3CCOCC3)s2)c2ccccc2C12COc1cc3c(cc12)OCO3 (stereo not drawn) | 97 to 99
77 | COCC(=O)N(C)c1cccc(OCc2ccccc2)c1[N+](=O)[O-] | 111 to 112
78 | Nc1ccc(Cl)c(Cl)c1CO | 134 to 135
79 | CON=C(C(=O)NC1C(=O)N2C(C(=O)O)=C(CSc3nnnn3C)SCC12)c1csc(N)n1 (stereo not drawn) | 180
80 | CC(C)c1cc(Cl)nc(-c2ccc(C#N)cc2)n1 | 114
81 | COC(=O)C(ON1C(C)(C)CCCC1(C)C)c1ccccc1 (stereo not drawn) | 83 to 86
82 | CCOc1ccc2[nH]c(=O)n(C34CC5CC(CC(C5)C3)C4)c2c1 | 146
83 | CN1C(=O)c2c(n3ccnc3c3c2c2cccnc2n3C2OC(CO)C(O)C(O)C2O)C1=O (stereo not drawn) | 298
84 | CN(C)CCN1C(=O)c2ccc3[nH]c4cc(O)c(O)cc4c3c2C1=O | > 260
85 | O=C1CN(Cc2ccccc2)CC2c3ccccc3CCCN12 (stereo not drawn) | 125 to 128
86 | COc1ccc2c(C(=O)O)cccc2c1SC(F)(F)F | 204 to 205
87 | COc1cc2c(cc1-c1cccnc1)-c1c(-c3cncs3)c3c(n1CC2)C(=O)N(C(C)(C)C)CCCOC3 | 200 to 201
88 | O=C(O)c1ccc(Cl)cc1NC(=O)C(CS)Cc1ccccc1 (stereo not drawn) | 134 to 136
89 | O=C(NCCCCCCNC(=O)Nc1cccnc1)Nc1cccnc1 | 197 to 199
90 | Cn1c(Sc2cccc(C(F)(F)F)c2)nc2c(-c3cccc(C(=O)NCCO)c3)cccc21 | 138 to 139
91 | Clc1ccc2c(NNc3ccccc3)c3c(nc2c1)CCSC3 | 201 to 202
92 | CCC(CC)N(O)C(=O)NC(C)(C)c1cccc(C(C)(C)NC(=O)N(O)C(CC)CC)c1 | 170 to 172
93 | COc1cc(OC)c2c(=O)[nH]c(-c3cc(C)c(OCCN4CCCC4)c(C)c3)nc2c1 | 181 to 183
94 | C[C@H](COc1ccccc1)Nc1nc(F)nc2c1ncn2[C@@H]1O[C@H](CO)[C@@H](O)[C@H]1O | 148 to 150
95 | NC(=O)COCCN1CCN(C(c2ccccc2)c2ccc(Cl)cc2)CC1 (single isomer, unassigned; (-)) | 94.3
96 | Cn1cccc(O)c1=O | 129 to 131
97 | COc1cc2nc(N)nc(-c3ccccc3I)c2cc1OC | 225 to 230
98 | Cc1ccccc1OC(=O)N1CCCC1=O | 85 to 87

Reference: a melting point compilation (Tetko et al.; mined from patent text by program, amines drawn as free bases though some values may be those of a salt)
